In PubChem BioAssay AID1259407 (Chemical Carcinogenesis Research Information System (CCRIS), 2018):
Active and inactive are the calls of the source. No rule for the calls is given here.

Test system: CCRIS mutagenicity, Ames/micronucleus/aberration tests
Experiment: CCRIS mutagenicity studies

Measured: mutagenic call

Nc1ccccc1N
active: End Point: IN VITRO CHROMOSOMAL ABERRATIONS, Test System: CHINESE HAMSTER LUNG CELLS (CHL), Metabolic Activation: NONE active; positive (structural changes) | End Point: IN VITRO CHROMOSOMAL ABERRATIONS, Test System: CHINESE HAMSTER OVARY CELLS (CHO), Metabolic Activation: NONE active; positive (structural changes) | End Point: IN VITRO CHROMOSOMAL ABERRATIONS, Test System: CHINESE HAMSTER OVARY CELLS (CHO), Metabolic Activation: RAT, LIVER, S-9, AROCLOR 1254 active; positive (structural changes) | End Point: IN VITRO CHROMOSOMAL ABERRATIONS, Test System: CHL CELLS, Metabolic Activation: NONE active; positive (structural changes) | End Point: IN VITRO CHROMOSOMAL ABERRATIONS, Test System: CHL CELLS, Metabolic Activation: RAT, LIVER, S-9, SODIUM PHENOBARBITAL AND 5,6-BENZOFLAVONE active; positive (structural changes) | Test System: AMES SALMONELLA TYPHIMURIUM, Strain/Indicator: TA97, Metabolic Activation: HAMSTER, LIVER, S-9, AROCLOR 1254 (10%), Method: PREINCUBATION active; positive | Test System: AMES SALMONELLA TYPHIMURIUM, Strain/Indicator: TA97, Metabolic Activation: RAT, LIVER, S-9, AROCLOR 1254 (10%), Method: PREINCUBATION active; positive | Test System: AMES SALMONELLA TYPHIMURIUM, Strain/Indicator: TA98(NR), Metabolic Activation: RAT, LIVER, S-9, AROCLOR 1254, Method: PREINCUBATION active; positive | Test System: AMES SALMONELLA TYPHIMURIUM, Strain/Indicator: TA98, Metabolic Activation: HAMSTER, LIVER, S-9, AROCLOR 1254 (10%), Method: PREINCUBATION active; positive | Test System: AMES SALMONELLA TYPHIMURIUM, Strain/Indicator: TA98, Metabolic Activation: PEA APICAL BUD S-9, Method: PREINCUBATION active; positive | Test System: AMES SALMONELLA TYPHIMURIUM, Strain/Indicator: TA98, Metabolic Activation: PEA APICAL BUD S-9, Method: STANDARD PLATE active; positive | Test System: AMES SALMONELLA TYPHIMURIUM, Strain/Indicator: TA98, Metabolic Activation: RAT LIVER S-9, PHENOBARBITAL AND BETA-NAPHTHOFLAVONE, Method: PREINCUBATION active; positive | Test System: AMES SALMONELLA TYPHIMURIUM, Strain/Indicator: TA98, Metabolic Activation: RAT, LIVER, S-9, AROCLOR 1254 (10%), Method: PREINCUBATION active; positive | Test System: AMES SALMONELLA TYPHIMURIUM, Strain/Indicator: TA98, Metabolic Activation: RAT, LIVER, S-9, AROCLOR 1254, Method: PREINCUBATION active; positive | Test System: AMES SALMONELLA TYPHIMURIUM, Strain/Indicator: TA98, Metabolic Activation: RAT, LIVER, S-9, AROCLOR 1254, Method: STANDARD PLATE active; positive | Test System: AMES SALMONELLA TYPHIMURIUM, Strain/Indicator: TA98, Metabolic Activation: RAT, LIVER, S-9, PCB, Method: PREINCUBATION active; positive | Test System: AMES SALMONELLA TYPHIMURIUM, Strain/Indicator: TA100(NR), Metabolic Activation: RAT, LIVER, S-9, AROCLOR 1254, Method: PREINCUBATION active; positive | Test System: AMES SALMONELLA TYPHIMURIUM, Strain/Indicator: TA100, Metabolic Activation: HAMSTER, LIVER, S-9, AROCLOR 1254 (10%), Method: PREINCUBATION active; positive | Test System: AMES SALMONELLA TYPHIMURIUM, Strain/Indicator: TA100, Metabolic Activation: PEA APICAL BUD S-9, Method: PREINCUBATION active; positive | Test System: AMES SALMONELLA TYPHIMURIUM, Strain/Indicator: TA100, Metabolic Activation: PEA APICAL BUD S-9, Method: STANDARD PLATE active; positive | Test System: AMES SALMONELLA TYPHIMURIUM, Strain/Indicator: TA100, Metabolic Activation: RAT LIVER S-9, PHENOBARBITAL AND BETA-NAPHTHOFLAVONE, Method: PREINCUBATION active; positive | Test System: AMES SALMONELLA TYPHIMURIUM, Strain/Indicator: TA100, Metabolic Activation: RAT, LIVER, S-9, AROCLOR 1254 (10%), Method: PREINCUBATION active; positive | Test System: AMES SALMONELLA TYPHIMURIUM, Strain/Indicator: TA100, Metabolic Activation: RAT, LIVER, S-9, PCB, Method: PREINCUBATION active; positive | Test System: AMES SALMONELLA TYPHIMURIUM, Strain/Indicator: TA1537, Metabolic Activation: RAT LIVER S-9, PHENOBARBITAL AND BETA-NAPHTHOFLAVONE, Method: PREINCUBATION active; positive | Test System: AMES SALMONELLA TYPHIMURIUM, Strain/Indicator: TA1538, Metabolic Activation: RAT, LIVER, S-9, AROCLOR 1254, Method: STANDARD PLATE active; positive | Test System: AMES SALMONELLA TYPHIMURIUM, Strain/Indicator: TA1538, Metabolic Activation: RAT, LIVER, S-9, PHENOBARBITAL, Method: STANDARD PLATE active; positive
inactive: End Point: IN VITRO CHROMOSOMAL ABERRATIONS, Test System: CHINESE HAMSTER LUNG CELLS (CHL), Metabolic Activation: RAT, LIVER, S-9, KC-400 inactive; negative | Test System: AMES SALMONELLA TYPHIMURIUM, Strain/Indicator: TA97, Metabolic Activation: NONE, Method: PREINCUBATION inactive; negative | Test System: AMES SALMONELLA TYPHIMURIUM, Strain/Indicator: TA98(NR), Metabolic Activation: NONE, Method: PREINCUBATION inactive; negative | Test System: AMES SALMONELLA TYPHIMURIUM, Strain/Indicator: TA98, Metabolic Activation: NONE, Method: STANDARD PLATE inactive; negative | Test System: AMES SALMONELLA TYPHIMURIUM, Strain/Indicator: TA98, Metabolic Activation: PLANT (PERSEA AMERICANA) S-117, Method: STANDARD PLATE inactive; negative | Test System: AMES SALMONELLA TYPHIMURIUM, Strain/Indicator: TA98, Metabolic Activation: PLANT (ZEA MAYS) S-9, Method: STANDARD PLATE inactive; negative | Test System: AMES SALMONELLA TYPHIMURIUM, Strain/Indicator: TA100(NR), Metabolic Activation: NONE, Method: PREINCUBATION inactive; negative | Test System: AMES SALMONELLA TYPHIMURIUM, Strain/Indicator: TA100, Metabolic Activation: NONE, Method: STANDARD PLATE inactive; negative | Test System: AMES SALMONELLA TYPHIMURIUM, Strain/Indicator: TA100, Metabolic Activation: PLANT (PERSEA AMERICANA) S-117, Method: STANDARD PLATE inactive; negative | Test System: AMES SALMONELLA TYPHIMURIUM, Strain/Indicator: TA100, Metabolic Activation: PLANT (ZEA MAYS) S-9, Method: STANDARD PLATE inactive; negative | Test System: AMES SALMONELLA TYPHIMURIUM, Strain/Indicator: TA1535, Metabolic Activation: HAMSTER, LIVER, S-9, AROCLOR 1254 (10%), Method: PREINCUBATION inactive; negative | Test System: AMES SALMONELLA TYPHIMURIUM, Strain/Indicator: TA1535, Metabolic Activation: NONE, Method: PREINCUBATION inactive; negative | Test System: AMES SALMONELLA TYPHIMURIUM, Strain/Indicator: TA1535, Metabolic Activation: RAT LIVER S-9, PHENOBARBITAL AND BETA-NAPHTHOFLAVONE, Method: PREINCUBATION inactive; negative | Test System: AMES SALMONELLA TYPHIMURIUM, Strain/Indicator: TA1535, Metabolic Activation: RAT, LIVER, S-9, AROCLOR 1254 (10%), Method: PREINCUBATION inactive; negative | Test System: AMES SALMONELLA TYPHIMURIUM, Strain/Indicator: TA1537, Metabolic Activation: NONE, Method: PREINCUBATION inactive; negative | Test System: AMES SALMONELLA TYPHIMURIUM, Strain/Indicator: YG1024, Metabolic Activation: PLANT (PERSEA AMERICANA) S-117, Method: STANDARD PLATE inactive; negative | Test System: AMES SALMONELLA TYPHIMURIUM, Strain/Indicator: YG1024, Metabolic Activation: PLANT (ZEA MAYS) S-9, Method: STANDARD PLATE inactive; negative | Test System: AMES SALMONELLA TYPHIMURIUM, Strain/Indicator: YG1029, Metabolic Activation: PLANT (PERSEA AMERICANA) S-117, Method: STANDARD PLATE inactive; negative | Test System: AMES SALMONELLA TYPHIMURIUM, Strain/Indicator: YG1029, Metabolic Activation: PLANT (ZEA MAYS) S-9, Method: STANDARD PLATE inactive; negative | Test System: E.COLI, Strain/Indicator: WP2UVRA, Metabolic Activation: NONE, Method: PREINCUBATION inactive; negative

CCCCCCCCCCOC[N+](C)(C)CCCCCCCC
inactive: Test System: BACILLUS SUBTILIS, Strain/Indicator: H17/REC, Metabolic Activation: NONE, Method: STANDARD PLATE inactive; negative | Test System: BACILLUS SUBTILIS, Strain/Indicator: M45, Metabolic Activation: NONE, Method: STANDARD PLATE inactive; negative
